Literature values, collected in patent US7629004B2, “Composition and process for removing and preventing mildew and fungal growth” (priority 2005, dated 2009).

Tested on: fungi
Settings: fungal contamination of aircraft interior surfaces

SMILES: CC(C)O [isopropyl alcohol]
- Effectiveness of approved military cleaning procedure: ineffective
